Laboratory results as given in patent US20060052362A1, “Skeletal muscle protecting agent” (priority 2003, published 2006).
Read-outs that look alike come from different tables or passages of the source.

Assays:
[1] = test system: Human normal skeletal muscle cells; assay: Effect of Test compound 3 on cytotoxicity of HMG-CoA reductase inhibitor (1), drugs added at the same time; assay type: cell-based; conditions: 3 days
Excerpt: Effect of Test Compound 3 on Cytotoxicity of HMG-CoA Reductase Inhibitor (1)

[2] = test system: Human normal skeletal muscle cells; assay: Effect of Test compound 3 on cytotoxicity of HMG-CoA reductase inhibitor (2), pretreatment 1 day; assay type: cell-based
Description: Effect of Test Compound 3 on Cytotoxicity of HMG-CoA Reductase Inhibitor (2)
The drug in Treatment 1 was added and after 1 day, the medium was completely removed.

[3] = test system: Human normal skeletal muscle cells; conditions: for The number of the live cells (% of Group 1): 3 days
[4] = test system: geranylgeraniol (GGOH) content in soleus muscle; assay: Increasing effect on geranylgeraniol (GGOH) content in soleus muscle; assay type: in vivo; conditions: male SD rat, Mean ± SE (N = 4)
Description: Increasing Effect on Geranylgeraniol (GGOH) Content in Soleus Muscle
To 6 week-old male SD rat (4 per group) was orally administered forcedly by means of a stomach sonde a vehicle or Test compounds 1 or 2 at a dose of 10 mL/kg once a day for 14 days so as to be in an amount of 40 or 200 mg/kg. In the next morning of the 14th administration, the rat was killed under ether anesthesia. Immediately, the soleus muscle was collected and frozen on a dry ice, and then kept at −80° C. Later, to the muscle homogenate was added phosphatase for dephosphorylation, and then the concentration of geranylgeraniol (sum total of geranylgeranyl pyrophosphate and geranylgeraniol) in the muscle was determined with LC/MS/MS (Table 1).

squalene synthase = molecular target: T1, squalene synthase (Homo sapiens, UniProt P37268); conditions: described in Test 1 of JP-A No. 9-136880; cited from earlier work
T1 sequence (P37268 1-417): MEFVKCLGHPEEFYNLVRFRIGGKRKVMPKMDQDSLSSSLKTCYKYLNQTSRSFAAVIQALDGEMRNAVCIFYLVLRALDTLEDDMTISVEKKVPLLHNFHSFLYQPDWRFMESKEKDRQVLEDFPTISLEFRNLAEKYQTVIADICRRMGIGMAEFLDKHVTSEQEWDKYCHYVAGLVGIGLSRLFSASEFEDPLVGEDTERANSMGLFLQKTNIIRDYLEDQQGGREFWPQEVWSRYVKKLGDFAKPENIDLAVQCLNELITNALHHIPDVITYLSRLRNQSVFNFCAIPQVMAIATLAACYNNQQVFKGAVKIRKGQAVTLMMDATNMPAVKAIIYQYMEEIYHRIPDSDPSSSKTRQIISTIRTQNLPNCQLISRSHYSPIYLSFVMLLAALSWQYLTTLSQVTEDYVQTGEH

[5] = single drug 10 μM, other treatment vehicle, Mean ± SE (N = 3)
[6] = 40 mg/kg oral once a day for 14 days
[7] = 200 mg/kg oral once a day for 14 days

## CC(C)c1c(C(=O)Nc2ccccc2)c(-c2ccccc2)c(-c2ccc(F)cc2)n1CC[C@@H](O)C[C@@H](O)CC(=O)O [Atorvastatin, atorvastatin, reference compound]
[1]; Atorvastatin 100 μM alone (Treatment 1 vehicle)
  The number of the live cells (% of Group 1): 34 ± 0.6 % of Group 1
[2]; vehicle 1 day, then Atorvastatin 10 μM 3 days
  The number of the live cells (% of Group 1): 57 ± 1.1 % of Group 1
[2]; vehicle 1 day, then Atorvastatin 100 μM 3 days
  The number of the live cells (% of Group 1): 35 ± 1.9 % of Group 1
[3]; [5]
  The number of the live cells (% of Group 1): 52.0 ± 0.9 % of Group 1

## CC(C)=CCC/C(C)=C/CC/C(C)=C/CC/C(C)=C/COP(=O)(O)OP(=O)(O)O [GGPP, geranylgeranyl pyrophosphate]
[3]; GGPP 10 μM added together with Atorvastatin 10 μM
  The number of the live cells (% of Group 1): 67.8 ± 1.3$ % of Group 1
[3]; GGPP 10 μM added together with Simvastatin 10 μM
  The number of the live cells (% of Group 1): 72.3 ± 1.6 % of Group 1
[3]; [5]
  The number of the live cells (% of Group 1): 93.5 ± 0.8 % of Group 1
[3]; summary of Table 2
  activity reducing cytotoxicity in skeletal muscle cells (in words): had an activity reducing cytotoxicity in skeletal muscle cells

## CCC(C)(C)C(=O)O[C@H]1C[C@@H](C)C=C2C=C[C@H](C)[C@H](CC[C@@H]3C[C@@H](O)CC(=O)O3)[C@H]21 [Simvastatin, simvastatin]
[3]; [5]
  The number of the live cells (% of Group 1): 46.2 ± 1.5 % of Group 1

## COc1cccc([C@H]2O[C@H](CC(=O)N3CCC(CC(=O)O)CC3)C(=O)N(CC(C)(C)COC(C)=O)c3ccc(Cl)cc32)c1OC [Test compound 1, N-[[(3R,5S)-1-(3-acetoxy-2,2-dimethylpropyl)-7-chloro-5-(2,3-dimethoxyphenyl)-2-oxo-1,2,3,5-tetrahydro-4,1-benzoxazepin-3-yl]acetyl]piperidine-4-acetic acid]
[4]; [6]
  GGOH content in the soleus muscle: 0.224 ± 0.017 μg/g soleus muscle
[4]; [7]
  GGOH content in the soleus muscle: 0.255 ± 0.027 μg/g soleus muscle

## COc1cccc([C@H]2O[C@H](CC(=O)Nc3cccc(CCC(=O)O)c3)C(=O)N(CC(C)(C)CO)c3ccc(Cl)cc32)c1OC [Test compound 2, 3-[3-[[[(3R,5S)-7-chloro-5-(2,3-dimethoxyphenyl)-1-(3-hydroxy-2,2-dimethylpropyl)-2-oxo-1,2,3,5-tetrahydro-4,1-benzoxazepin-3-yl]acetyl]amino]phenyl]propionic acid]
Squalene synthase
  inhibitory activity against squalene synthase: has inhibitory activity against squalene synthase
[4]; [6]
  GGOH content in the soleus muscle: 0.225 ± 0.019 μg/g soleus muscle
[4]; [7]
  GGOH content in the soleus muscle: 0.255 ± 0.006 μg/g soleus muscle

## COc1cccc([C@H]2O[C@H](CC(=O)N3CCC(CC(=O)O)CC3)C(=O)N(CC(C)(C)CO)c3ccc(Cl)cc32)c1OC [Test compound 3, N-[[(3R,5S)-7-chloro-5-(2,3-dimethoxyphenyl)-1-(3-hydroxy-2,2-dimethylpropyl)-2-oxo-1,2,3,5-tetrahydro-4,1-benzoxazepin-3-yl]acetyl]piperidine-4-acetic acid]
[1]; Test compound 3 10 μM added at the same time as Atorvastatin 100 μM
  The number of the live cells (% of Group 1): 42 ± 0.5 % of Group 1
[1]; Test compound 3 10 μM alone (Treatment 2 vehicle), Mean ± SE (N = 3)
  The number of the live cells (% of Group 1): 96 ± 1.2 % of Group 1
[2]; Test compound 3 10 μM for 1 day, medium removed, then Atorvastatin 10 μM 3 days
  The number of the live cells (% of Group 1): 76 ± 1.8 % of Group 1
[2]; Test compound 3 10 μM for 1 day, medium removed, then Atorvastatin 100 μM 3 days
  The number of the live cells (% of Group 1): 45 ± 0.2 % of Group 1
[2]; Test compound 3 10 μM for 1 day, medium removed, then vehicle 3 days, Mean ± SE (N = 3)
  The number of the live cells (% of Group 1): 98 ± 2.3 % of Group 1
Squalene synthase
  inhibitory activity against squalene synthase: has inhibitory activity against squalene synthase
